Publication PMC6274539, “Photoactivatable Caged Prodrugs of VEGFR-2 Kinase Inhibitors” (Molecules, 2016)

How the values were obtained:
Assay in all cases: kinase profiling, radioactive filter binding assay
Type in all cases: biochemical
MNK1 = MNK1 (Homo sapiens, UniProt Q9BUB5); conditions: 0.1 µM compound, assay duplicates; read-out: residual activity of MNK1, mean percentage activity
Method: (§1) The used method was a radioactive filter binding assay using ^33P ATP, for details see references. The substances were dissolved in DMSO at tested concentration of 0.1 µM. The mean percentage residual kinase activity and standard deviations of assay duplicates were determined. Analyses were performed by the International Center for Kinase Profiling at the University of Dundee, UK.

BTK = BTK (Homo sapiens, UniProt Q06187); conditions: 0.1 µM compound, assay duplicates; read-out: residual activity of BTK, mean percentage activity
BTK, sequence (Q06187 whole entry): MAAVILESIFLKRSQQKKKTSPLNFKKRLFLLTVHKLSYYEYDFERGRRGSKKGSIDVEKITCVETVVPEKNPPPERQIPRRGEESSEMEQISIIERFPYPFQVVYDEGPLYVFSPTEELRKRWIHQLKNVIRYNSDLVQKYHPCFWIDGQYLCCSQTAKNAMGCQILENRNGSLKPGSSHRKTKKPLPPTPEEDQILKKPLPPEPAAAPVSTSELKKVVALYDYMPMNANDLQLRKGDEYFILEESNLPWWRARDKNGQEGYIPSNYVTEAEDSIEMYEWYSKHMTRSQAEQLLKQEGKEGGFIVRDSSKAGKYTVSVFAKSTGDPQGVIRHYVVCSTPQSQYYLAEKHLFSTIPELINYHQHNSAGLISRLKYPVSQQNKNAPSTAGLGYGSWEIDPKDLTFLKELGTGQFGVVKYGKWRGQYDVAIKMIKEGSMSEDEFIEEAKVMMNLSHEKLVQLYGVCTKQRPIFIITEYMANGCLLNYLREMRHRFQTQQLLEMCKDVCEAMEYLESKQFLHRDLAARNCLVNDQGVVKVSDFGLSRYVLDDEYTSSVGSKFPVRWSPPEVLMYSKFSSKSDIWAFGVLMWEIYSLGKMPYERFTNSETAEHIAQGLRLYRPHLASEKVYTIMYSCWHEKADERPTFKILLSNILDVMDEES
Method: as §1

PAK5 = PAK5 (Homo sapiens, UniProt Q9P286); conditions: 0.1 µM compound, assay duplicates; read-out: residual activity of PAK5, mean percentage activity
Method: as §1

FGF-R1 = FGF-R1 (Homo sapiens, UniProt P11362); conditions: 0.1 µM compound, assay duplicates; read-out: residual activity of FGF-R1, mean percentage activity
Method: as §1

SGK1 = SGK1 (Homo sapiens, UniProt O00141); conditions: 0.1 µM compound, assay duplicates; read-out: residual activity of SGK1, mean percentage activity
SGK1, sequence (O00141 whole entry): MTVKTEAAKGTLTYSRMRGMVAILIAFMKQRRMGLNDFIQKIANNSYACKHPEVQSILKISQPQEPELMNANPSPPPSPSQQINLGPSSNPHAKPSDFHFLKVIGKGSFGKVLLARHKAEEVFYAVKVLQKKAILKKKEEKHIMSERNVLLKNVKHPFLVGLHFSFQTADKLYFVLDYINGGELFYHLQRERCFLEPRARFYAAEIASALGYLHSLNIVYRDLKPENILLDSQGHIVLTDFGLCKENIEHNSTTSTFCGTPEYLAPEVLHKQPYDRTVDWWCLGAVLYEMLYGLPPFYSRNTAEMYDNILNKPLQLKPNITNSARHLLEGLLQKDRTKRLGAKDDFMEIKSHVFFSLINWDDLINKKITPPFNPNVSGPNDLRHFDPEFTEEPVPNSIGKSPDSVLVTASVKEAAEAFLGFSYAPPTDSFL
Method: as §1

MSK1 = MSK1 (Homo sapiens, UniProt O75582); conditions: 0.1 µM compound, assay duplicates; read-out: residual activity of MSK1, mean percentage activity
Method: as §1

DYRK1A = DYRK1A (Homo sapiens, UniProt Q13627); conditions: 0.1 µM compound, assay duplicates; read-out: residual activity of DYRK1A, mean percentage activity
Method: as §1

PKBb = PKBb (Homo sapiens, UniProt P31751); conditions: 0.1 µM compound, assay duplicates; read-out: residual activity of PKBb, mean percentage activity
Method: as §1

PDK1 = PDK1 (Homo sapiens, UniProt O15530); conditions: 0.1 µM compound, assay duplicates; read-out: residual activity of PDK1, mean percentage activity
Method: as §1

DYRK2 = DYRK2 (Homo sapiens, UniProt Q92630); conditions: 0.1 µM compound, assay duplicates; read-out: residual activity of DYRK2, mean percentage activity
DYRK2, sequence (Q92630 whole entry): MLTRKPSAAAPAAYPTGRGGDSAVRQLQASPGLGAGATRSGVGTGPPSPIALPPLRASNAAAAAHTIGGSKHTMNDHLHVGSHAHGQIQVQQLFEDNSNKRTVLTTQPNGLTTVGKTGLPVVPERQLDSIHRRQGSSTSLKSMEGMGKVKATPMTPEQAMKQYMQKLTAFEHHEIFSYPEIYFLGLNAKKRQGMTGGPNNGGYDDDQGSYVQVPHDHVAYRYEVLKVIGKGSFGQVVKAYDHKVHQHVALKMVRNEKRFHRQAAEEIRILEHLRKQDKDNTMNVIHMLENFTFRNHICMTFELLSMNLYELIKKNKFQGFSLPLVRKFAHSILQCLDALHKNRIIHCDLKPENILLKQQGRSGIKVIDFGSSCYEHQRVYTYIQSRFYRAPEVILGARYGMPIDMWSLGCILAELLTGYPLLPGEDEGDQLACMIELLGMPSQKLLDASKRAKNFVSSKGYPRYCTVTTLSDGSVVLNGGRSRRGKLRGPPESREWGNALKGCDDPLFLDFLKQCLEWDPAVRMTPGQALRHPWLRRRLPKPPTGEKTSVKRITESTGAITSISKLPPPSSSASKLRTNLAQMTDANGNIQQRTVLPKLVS
Method: as §1

CHK1 = CHK1 (Homo sapiens, UniProt O14757); conditions: 0.1 µM compound, assay duplicates; read-out: residual activity of CHK1, mean percentage activity
CHK1, sequence (O14757 whole entry): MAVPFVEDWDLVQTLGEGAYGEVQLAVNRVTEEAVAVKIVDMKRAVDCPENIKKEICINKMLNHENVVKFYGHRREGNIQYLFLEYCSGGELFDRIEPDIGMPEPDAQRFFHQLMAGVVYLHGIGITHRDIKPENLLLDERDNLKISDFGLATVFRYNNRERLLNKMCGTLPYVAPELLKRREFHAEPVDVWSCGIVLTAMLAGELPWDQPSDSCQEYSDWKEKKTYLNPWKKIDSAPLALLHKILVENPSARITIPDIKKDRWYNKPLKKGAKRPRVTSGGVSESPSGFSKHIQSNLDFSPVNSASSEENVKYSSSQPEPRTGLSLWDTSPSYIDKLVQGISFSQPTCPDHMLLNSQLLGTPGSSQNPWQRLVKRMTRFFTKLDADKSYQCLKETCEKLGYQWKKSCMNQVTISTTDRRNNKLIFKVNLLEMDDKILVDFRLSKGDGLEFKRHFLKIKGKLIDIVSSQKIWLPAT
Method: as §1

MNK2 = MNK2 (Homo sapiens, UniProt Q9HBH9); conditions: 0.1 µM compound, assay duplicates; read-out: residual activity of MNK2, mean percentage activity
MNK2, sequence (Q9HBH9 whole entry): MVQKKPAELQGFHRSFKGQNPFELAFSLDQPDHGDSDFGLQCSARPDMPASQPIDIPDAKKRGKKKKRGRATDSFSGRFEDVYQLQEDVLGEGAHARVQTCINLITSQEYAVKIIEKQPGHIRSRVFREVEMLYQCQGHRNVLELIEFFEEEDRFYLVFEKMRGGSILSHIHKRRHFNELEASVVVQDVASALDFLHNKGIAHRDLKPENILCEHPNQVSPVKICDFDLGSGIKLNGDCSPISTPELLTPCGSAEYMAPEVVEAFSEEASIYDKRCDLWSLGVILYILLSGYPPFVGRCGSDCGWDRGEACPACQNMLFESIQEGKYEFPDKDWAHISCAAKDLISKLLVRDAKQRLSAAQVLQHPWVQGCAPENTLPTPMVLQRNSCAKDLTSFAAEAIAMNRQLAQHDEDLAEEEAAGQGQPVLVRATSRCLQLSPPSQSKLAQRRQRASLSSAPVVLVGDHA
Method: as §1

MARK3 = MARK3 (Homo sapiens, UniProt P27448); conditions: 0.1 µM compound, assay duplicates; read-out: residual activity of MARK3, mean percentage activity
MARK3, sequence (P27448 whole entry): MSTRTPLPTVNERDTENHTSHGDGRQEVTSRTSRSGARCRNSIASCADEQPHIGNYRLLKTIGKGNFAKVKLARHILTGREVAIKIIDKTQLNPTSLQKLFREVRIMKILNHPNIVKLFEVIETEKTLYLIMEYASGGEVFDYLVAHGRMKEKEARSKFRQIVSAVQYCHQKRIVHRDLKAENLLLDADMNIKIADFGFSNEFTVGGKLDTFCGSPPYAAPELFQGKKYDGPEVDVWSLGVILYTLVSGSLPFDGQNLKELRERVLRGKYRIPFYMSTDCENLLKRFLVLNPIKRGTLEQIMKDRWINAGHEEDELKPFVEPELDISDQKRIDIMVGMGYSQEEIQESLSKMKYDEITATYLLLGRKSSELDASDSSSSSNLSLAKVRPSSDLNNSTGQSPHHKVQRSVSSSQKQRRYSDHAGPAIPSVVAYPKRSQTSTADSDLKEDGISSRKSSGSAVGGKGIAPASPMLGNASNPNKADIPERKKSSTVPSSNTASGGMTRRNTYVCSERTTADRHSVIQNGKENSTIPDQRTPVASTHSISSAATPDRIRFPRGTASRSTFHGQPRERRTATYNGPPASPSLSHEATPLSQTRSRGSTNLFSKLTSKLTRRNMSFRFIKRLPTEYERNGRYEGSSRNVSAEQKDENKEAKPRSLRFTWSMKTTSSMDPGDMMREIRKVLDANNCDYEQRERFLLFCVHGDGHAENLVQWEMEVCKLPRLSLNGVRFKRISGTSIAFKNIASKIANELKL
Method: as §1

EFK2 = EFK2 (Homo sapiens, UniProt O00418); conditions: 0.1 µM compound, assay duplicates; read-out: residual activity of EFK2, mean percentage activity
Method: as §1

MST2 = MST2 (Homo sapiens, UniProt Q13188); conditions: 0.1 µM compound, assay duplicates; read-out: residual activity of MST2, mean percentage activity
Method: as §1

IKKb = IKKb (Homo sapiens, UniProt O14920); conditions: 0.1 µM compound, assay duplicates; read-out: residual activity of IKKb, mean percentage activity
Method: as §1

ERK2 = ERK2 (Homo sapiens, UniProt P28482); conditions: 0.1 µM compound, assay duplicates; read-out: residual activity of ERK2, mean percentage activity
ERK2, sequence (P28482 whole entry): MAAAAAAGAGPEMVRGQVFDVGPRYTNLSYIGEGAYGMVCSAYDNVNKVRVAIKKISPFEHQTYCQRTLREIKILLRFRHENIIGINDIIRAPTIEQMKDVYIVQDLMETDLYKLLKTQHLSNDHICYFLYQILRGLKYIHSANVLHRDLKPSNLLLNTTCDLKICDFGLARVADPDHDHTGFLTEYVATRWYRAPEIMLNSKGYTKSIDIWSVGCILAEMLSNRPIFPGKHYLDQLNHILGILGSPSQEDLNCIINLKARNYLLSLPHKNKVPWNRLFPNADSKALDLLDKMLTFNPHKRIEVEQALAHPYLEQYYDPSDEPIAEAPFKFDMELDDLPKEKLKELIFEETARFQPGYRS
Method: as §1

ROCK 2 = ROCK 2 (Homo sapiens, UniProt O75116); conditions: 0.1 µM compound, assay duplicates; read-out: residual activity of ROCK 2, mean percentage activity
Method: as §1

YES1 = YES1 (Homo sapiens, UniProt P07947); conditions: 0.1 µM compound, assay duplicates; read-out: residual activity of YES1, mean percentage activity
Method: as §1

NEK6 = NEK6 (Homo sapiens, UniProt Q9HC98); conditions: 0.1 µM compound, assay duplicates; read-out: residual activity of NEK6, mean percentage activity
NEK6, sequence (Q9HC98 whole entry): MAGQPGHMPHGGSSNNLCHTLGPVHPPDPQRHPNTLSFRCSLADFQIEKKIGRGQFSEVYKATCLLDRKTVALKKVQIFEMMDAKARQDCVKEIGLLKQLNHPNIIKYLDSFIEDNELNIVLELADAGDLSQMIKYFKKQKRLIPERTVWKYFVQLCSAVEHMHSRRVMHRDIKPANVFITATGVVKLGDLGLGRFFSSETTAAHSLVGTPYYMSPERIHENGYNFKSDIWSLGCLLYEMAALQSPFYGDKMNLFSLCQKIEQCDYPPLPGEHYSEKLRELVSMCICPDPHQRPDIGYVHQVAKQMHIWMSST
Method: as §1

PIM1 = PIM1 (Homo sapiens, UniProt P11309); conditions: 0.1 µM compound, assay duplicates; read-out: residual activity of PIM1, mean percentage activity
Method: as §1

RSK1 = RSK1 (Homo sapiens, UniProt Q15418); conditions: 0.1 µM compound, assay duplicates; read-out: residual activity of RSK1, mean percentage activity
Method: as §1

PKD1 = PKD1 (Homo sapiens, UniProt Q15139); conditions: 0.1 µM compound, assay duplicates; read-out: residual activity of PKD1, mean percentage activity
Method: as §1

CDK2-Cyclin A = CDK2-Cyclin A (Homo sapiens, UniProt P24941); conditions: 0.1 µM compound, assay duplicates; read-out: residual activity of CDK2-Cyclin A, mean percentage activity
Method: as §1

MKK1 = MKK1 (Homo sapiens, UniProt Q02750); conditions: 0.1 µM compound, assay duplicates; read-out: residual activity of MKK1, mean percentage activity
Method: as §1

CHK2 = CHK2 (Homo sapiens, UniProt O96017); conditions: 0.1 µM compound, assay duplicates; read-out: residual activity of CHK2, mean percentage activity
Method: as §1

PKA = PKA (Homo sapiens, UniProt P17612); conditions: 0.1 µM compound, assay duplicates; read-out: residual activity of PKA, mean percentage activity
Method: as §1

Aurora B = Aurora B (Homo sapiens, UniProt Q96GD4); conditions: 0.1 µM compound, assay duplicates; read-out: residual activity of Aurora B, mean percentage activity
Aurora B, sequence (Q96GD4 whole entry): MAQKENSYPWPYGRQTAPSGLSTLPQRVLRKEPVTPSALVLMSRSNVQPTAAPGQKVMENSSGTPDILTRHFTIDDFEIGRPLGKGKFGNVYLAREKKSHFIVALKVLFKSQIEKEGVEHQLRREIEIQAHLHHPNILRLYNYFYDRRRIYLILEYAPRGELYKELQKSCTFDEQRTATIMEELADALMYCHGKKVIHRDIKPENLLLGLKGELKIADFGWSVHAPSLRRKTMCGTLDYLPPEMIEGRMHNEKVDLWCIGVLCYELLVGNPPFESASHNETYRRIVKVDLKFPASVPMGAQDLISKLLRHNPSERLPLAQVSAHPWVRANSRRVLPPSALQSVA
Method: as §1

MNK1, sequence (Q9BUB5 whole entry): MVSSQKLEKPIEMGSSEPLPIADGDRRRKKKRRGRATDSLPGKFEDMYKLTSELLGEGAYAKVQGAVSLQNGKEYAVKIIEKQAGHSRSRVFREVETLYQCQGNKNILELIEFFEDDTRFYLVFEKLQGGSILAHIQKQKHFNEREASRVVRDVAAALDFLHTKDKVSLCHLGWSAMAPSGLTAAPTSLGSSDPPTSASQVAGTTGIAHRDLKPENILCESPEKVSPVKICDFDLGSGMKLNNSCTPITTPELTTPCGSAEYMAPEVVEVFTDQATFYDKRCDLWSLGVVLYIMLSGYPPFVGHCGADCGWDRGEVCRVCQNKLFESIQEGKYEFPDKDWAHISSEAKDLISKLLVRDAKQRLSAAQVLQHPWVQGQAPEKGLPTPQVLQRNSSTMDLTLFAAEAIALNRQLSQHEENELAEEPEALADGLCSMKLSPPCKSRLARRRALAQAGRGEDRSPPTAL

Compound | remaining activity at 0.1 µM (MNK1) [%] | remaining activity at 0.1 µM (BTK) [%] | remaining activity at 0.1 µM (PAK5) [%] | remaining activity at 0.1 µM (FGF-R1) [%] | remaining activity at 0.1 µM (SGK1) [%] | remaining activity at 0.1 µM (MSK1) [%] | remaining activity at 0.1 µM (DYRK1A) [%] | remaining activity at 0.1 µM (PKBb) [%] | remaining activity at 0.1 µM (PDK1) [%] | remaining activity at 0.1 µM (DYRK2) [%] | remaining activity at 0.1 µM (CHK1) [%] | remaining activity at 0.1 µM (MNK2) [%] | remaining activity at 0.1 µM (MARK3) [%] | remaining activity at 0.1 µM (EFK2) [%] | remaining activity at 0.1 µM (MST2) [%] | remaining activity at 0.1 µM (IKKb) [%] | remaining activity at 0.1 µM (ERK2) [%] | remaining activity at 0.1 µM (ROCK 2) [%] | remaining activity at 0.1 µM (YES1) [%] | remaining activity at 0.1 µM (NEK6) [%] | also measured
COc1cc(C2=C(c3c[nH]c4ccccc34)C(=O)NC2=O)cc(OC)c1OC [Compound 1, 3-(1H-Indol-3-yl)-4-(3,4,5-trimethoxyphenyl)-1H-pyrrole-2,5-dione] | 80 | 93 | 105 | 69 | 75 | 69 | 73 | 98 | 68 | 57 | 72 | 90 | 90 | 104 | 53 | 102 | 94 | 97 | 84 | 96 | remaining activity at 0.1 µM (PIM1): 14%; remaining activity at 0.1 µM (RSK1): 96%; remaining activity at 0.1 µM (PKD1): 100%; remaining activity at 0.1 µM (CDK2-Cyclin A): 59%; remaining activity at 0.1 µM (MKK1): 54%; remaining activity at 0.1 µM (CHK2): 64%; remaining activity at 0.1 µM (PKA): 93%; remaining activity at 0.1 µM (Aurora B): 84%
COc1cc2c3c(c4c5ccccc5[nH]c4c2c(OC)c1OC)C(=O)NC3=O [Compound 3, 5,6,7-Trimethoxybenzo[a]pyrrolo[3,4-c]carbazole-1,3(2H,8H)-dione] | 79 | 90 | 84 | 92 | 52 | 55 | 26 | 91 | 39 | 17 | 34 | 81 | 73 | 109 | 24 | 113 | 93 | 88 | 88 | 104 | remaining activity at 0.1 µM (PIM1): 5%; remaining activity at 0.1 µM (RSK1): 51%; remaining activity at 0.1 µM (PKD1): 60%; remaining activity at 0.1 µM (CDK2-Cyclin A): 28%; remaining activity at 0.1 µM (MKK1): 67%; remaining activity at 0.1 µM (CHK2): 63%; remaining activity at 0.1 µM (PKA): 90%; remaining activity at 0.1 µM (Aurora B): 47%
